{
  "source": "patent US12213954B2",
  "about": "“Colchicine solution” (PHARMA-DATA RESEARCH AND D[…] MEMBER S.A., priority 2021, dated 2025)",
  "origin": "cited, not measured here",
  "settings": "pure colchicine",
  "data": [
    {"smiles": "COc1cc2c(c(OC)c1OC)-c1ccc(OC)c(=O)cc1[C@@H](NC(C)=O)CC2", "note": "[colchicine, (S)—N-(5,6,7,9-tetrahydro-1,2,3,10-tetramethoxy-9-oxo-benzo[a]heptalene-7-yl)acetamide]", "values": [
      {"measurement": "solubility in water, ethanol and chloroform (in words)", "value": "well soluble"}
    ]}
  ]
}
